Laboratory results from US20050026219A1, “Process for label-free measurement of modified substrate” (Boehringer Ingelheim Pharma GmbH & Co. KG, priority 2001, published 2005).
Where two headings read alike, the source gives them in different places. Ends that are not written are not given here.

How the values were obtained:
[1] = biological target: EGF-RK (Homo sapiens, UniProt P00533); conditions: cited from earlier work
[2] = biological target: EGF-receptor kinase (EGF-RK) (Homo sapiens, UniProt P00533); conditions: for Optical layer thickness: PGT 10 μg/50 μl, EGF-RK 1 Unit/50 μl, EGF-RK buffer with Brij 35
Protocol: The quantity depends mainly on the volumes which are still to be pipetted, the buffer being intended to make the volume of the phosphorylation assay up to the total of 100 μl.
Then 10 μl of 10% (v/v) DMSO solution are added, or if a substance is to be tested for possible enzyme-modulating properties, 10 μl of a test substance, i.e. a possible inhibitor or activator, dissolved in 10% (v/v) of DMSO, are pipetted in.
If an enzymatic reaction is to take place, the enzyme is added at this stage.
Then the substrate is added. The amounts of the substrates Poly-(Glu, Tyr) 4:1, (SEQ ID NO.:2) M-2165 and (SEQ ID NO.:3) Raytide™ EL used are specified in each case.
The reaction of phosphorylation is started here by the addition of 10 μl of the 1 mM ATP solution.
The incubation time is 30 minutes at +30° C., for example.
After the end of the incubation period, 20 μl of antibody solution (1.6.) are pipetted in, for example. The receptor, in this case the antibody, is used in excess. The amount which corresponds to an excess can very easily be determined by anyone skilled in the art by means of experiments on binding to a sensor surface to which a substance with a receptor binding site is coupled, with increasing amounts of receptor. In the case of reactions of phosphorylation, increasing amounts of receptor are used with a constant amount of substrate and kinase.
The incubation time with the antibody may be, for example, 30 minutes at ambient temperature.
After the end of the incubation period 50 μl of incubation mixture are taken and pipetted into the prepared measuring cell with the sensor to whose surface is coupled a substance with a receptor binding site.
The layer thickness of the sensor is measured, for example, by Reflectometric Interference Spectroscopy (RIfS) using a SPEKOL 1100 simultaneous spectral photometer made by Messrs Zeiss Jena, modified according to Schmitt et al. 1997.
The receptor (in this case the antibody) is used in excess, so that even if there is a total enzymatic reaction (in this case phosphorylation) of the substrate at least a slight binding signal will still be obtained by the binding of the receptor (antibody) to the sensor surface.
The reaction of phosphorylation is started by the addition of ATP.
At the start of the experiment a control and a complete phosphorylation without the addition of inhibitor are carried out.

[3] = Layer thickness formation (binding) on the phospho-tyrosine-diamino-PEG 2000 sensor surface, RIfS; conditions: for Optical layer thickness (binding) / Optical layer thickness (non-specific binding): EGF-RK buffer
Protocol: (§1) A conventional aminodextrane (AMD) sensor or a diamino PEG 2000 sensor is used (e.g. Schütz A., 2000; a) Piehler J., et al., 1996; Universität Tübingen, Inst. f. Physikalische and Theoretische Chemie, Germany.)
(§2) 20 μl aliquots of the final solution are immediately added drop by drop to the sensor surface which is about 1 cm^2 in size, and incubated for 8 hours under DMF chamber saturation. Then the sensor is rinsed with DMF and dried in the air.

[4] = Layer thickness formation (binding) on the phospho-tyrosine-AMD sensor surface, RIfS; conditions: for Optical layer thickness (increase): Hepes buffer pH 7.40, Raytide EL or antibody 1.0 μg/50 μl, kinase 1 Unit/50 μl
Protocol: as §1, §2
The buffer used is p60c-src-kinase buffer, pH=7.40, with the final concentrations of 50 mM of Hepes and 30 mM of magnesium chloride in the incubation mixture.
The layer thickness formation of p60c-src-kinase (1 Unit/50 μl) in the presence of Brij 35 is investigated. […] Increasing concentrations of Brij 35 (% v/v) are added to the buffer.
Use of alternative substrates, kinase and sensors in a process according to the invention. […] The buffer used is Hepes buffer pH=7.40 with 50 mM of Hepes and 30 mM of magnesium chloride. The buffer contains 0.5% v/v mercaptoethanol, 0.05% v/v Brij 35 and 10 μg/50 μl albumin.
First, the antibody, then the kinase and the substrate are measured on their own in order to be able to evaluate any non-specific binding.

[5] = Table 8: EGF-RK buffer with Brij 35, substrate 10 μg/50 μl, EGF-RK 0.1 Unit/50 μl, EGF 0.5 μg/50 μl

EGF-receptor kinase (EGF-RK), sequence (P00533 25-1210): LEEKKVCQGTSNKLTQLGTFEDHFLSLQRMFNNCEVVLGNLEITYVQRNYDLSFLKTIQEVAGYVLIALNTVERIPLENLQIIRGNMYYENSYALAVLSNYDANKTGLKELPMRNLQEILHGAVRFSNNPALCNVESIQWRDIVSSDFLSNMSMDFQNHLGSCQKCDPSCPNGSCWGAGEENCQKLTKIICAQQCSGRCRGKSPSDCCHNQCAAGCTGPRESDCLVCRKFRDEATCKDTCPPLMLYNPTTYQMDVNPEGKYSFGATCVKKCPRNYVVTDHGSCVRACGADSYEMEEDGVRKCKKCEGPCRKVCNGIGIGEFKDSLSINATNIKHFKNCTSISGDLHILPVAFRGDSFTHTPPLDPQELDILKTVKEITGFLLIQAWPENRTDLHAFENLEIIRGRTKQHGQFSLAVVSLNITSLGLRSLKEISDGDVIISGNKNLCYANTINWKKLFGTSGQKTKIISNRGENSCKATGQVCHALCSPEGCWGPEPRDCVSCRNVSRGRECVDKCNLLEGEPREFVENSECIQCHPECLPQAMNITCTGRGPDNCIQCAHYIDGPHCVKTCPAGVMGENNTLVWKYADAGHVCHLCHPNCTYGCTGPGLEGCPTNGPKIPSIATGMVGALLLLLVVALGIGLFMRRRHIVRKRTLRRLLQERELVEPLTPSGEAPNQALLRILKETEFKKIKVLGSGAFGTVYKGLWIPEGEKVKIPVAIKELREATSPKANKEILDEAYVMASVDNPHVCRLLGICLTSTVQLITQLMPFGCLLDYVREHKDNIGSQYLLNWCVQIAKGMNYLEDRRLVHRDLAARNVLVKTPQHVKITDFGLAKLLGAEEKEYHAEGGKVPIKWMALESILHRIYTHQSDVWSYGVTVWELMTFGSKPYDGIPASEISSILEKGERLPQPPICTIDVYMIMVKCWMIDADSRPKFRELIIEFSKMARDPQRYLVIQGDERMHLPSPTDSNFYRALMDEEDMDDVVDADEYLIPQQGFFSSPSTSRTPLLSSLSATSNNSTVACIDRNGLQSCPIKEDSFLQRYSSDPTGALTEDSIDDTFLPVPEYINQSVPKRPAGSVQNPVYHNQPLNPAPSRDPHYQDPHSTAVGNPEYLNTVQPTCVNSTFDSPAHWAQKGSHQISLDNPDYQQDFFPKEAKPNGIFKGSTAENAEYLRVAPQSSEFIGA
EGF-RK, sequence (P00533 25-1210): as above

**Q.** With O=CN/C=C/c1cc(O)ccc1O [Erbstatin] as the compound, how does the “Inhibitor strength described in the literature” value [1] read?
**A.** weak inhibitor

**Q.** For COC(=O)/C=C/c1cc(O)ccc1O [erbstatin analogue, Erbstatin Analogue], which Optical layer thickness ([2]; 10^-3M inhibitor) is on record?
**A.** 1.170 nm

**Q.** And the Optical layer thickness ([2]; 10^-4M inhibitor)?
**A.** 0.728 nm

**Q.** And the Optical layer thickness ([2]; 10^-5M inhibitor)?
**A.** 0.702 nm

**Q.** What about the Optical layer thickness ([2]; 10^-6M inhibitor) of the same compound?
**A.** 0.442 nm

**Q.** And the Optical layer thickness ([2]; 10^-7M inhibitor)?
**A.** 0.489 nm

**Q.** What about the Optical layer thickness ([2]; 10^-8M inhibitor) of the same compound?
**A.** 0.526 nm

**Q.** And the “Inhibition of phosphorylation” value ([2]; up to 10^-3M)?
**A.** incomplete even at higher concentrations

**Q.** What does the source list for “Ac-Ile-Tyr-Gly-Glu-Phe-NH2 (Ac-IYGEF-NH2; also: phosphorylated, site not given here) [M-2165, Oligopeptide kinase substrate, Messrs; Bachem]”?
**A.** Optical layer thickness, component on its own ([3]; Table 13 a: Hepes buffer pH 7.40, 0.5% mercaptoethanol, 0.05% Brij 35, albumin 10 μg/50 μl, M-2165 10 μg/50 μl, p60c-src-kinase 2 Units/50 μl): 0.285 nm; Optical layer thickness, component on its own ([4]; Table 13: Hepes buffer pH 7.40, 0.5% mercaptoethanol, 0.05% Brij 35, albumin 10 μg/50 μl, M-2165 10 μg/50 μl, p60c-src-kinase 4 Units/50 μl): 0.230 nm

**Q.** With “EGF: Epidermal Growth Factor, activator for phosphorylation with EGF-RK” as the compound, how does the “Optical layer thickness (binding)” value ([3]; EGF 0.5 Units + Brij 35 (0.01% v/v)) read?
**A.** 0.320 nm

**Q.** What about the “Optical layer thickness (binding)” value ([3]; EGF 0.5 Units, no Brij 35) of the same compound?
**A.** 0.814 nm

**Q.** And the “Optical layer thickness (binding)” value ([3]; EGF 1.0 Units + Brij 35 (0.01% v/v))?
**A.** 0.484 nm

**Q.** What about the “Optical layer thickness (binding)” value ([3]; EGF 1.0 Units, no Brij 35) of the same compound?
**A.** 0.833 nm

**Q.** And the “Optical layer thickness, component on its own” value [3, 5]?
**A.** 0.355 nm

**Q.** Which “Optical layer thickness, component on its own” value ([3]; Table 12: EGF-RK buffer with Brij 35, Raytide EL 2 μg/50 μl, EGF-RK 0.5 Units/50 μl) does the source give for “Lys-Lys-Lys-Gly-Pro-Trp-Leu-Glu-Glu-Glu-Glu-Glu-Ala-Tyr-Gly-Trp-Leu-Asp-Phe (KKKGPWLEEEEEAYGWLDF; also: phosphorylated modified substrate, site not given here) [Raytide ™ EL, Protein-tyrosine-kinase substrate, Messrs; Calbiochem]” here?
**A.** 0.127 nm

**Q.** And the “Optical layer thickness (increase)” value ([4]; with 0.001% Brij 35 (v/v))?
**A.** 0.067 nm

**Q.** What about the “Optical layer thickness (increase)” value ([4]; with 0.002% Brij 35 (v/v)) of the same compound?
**A.** 0.083 nm

**Q.** And the “Optical layer thickness (increase)” value ([4]; with 0.01% Brij 35 (v/v))?
**A.** 0.000 nm

**Q.** And the “Optical layer thickness (increase)” value ([4]; with 0.02% Brij 35 (v/v))?
**A.** 0.000 nm

**Q.** What about the “Optical layer thickness (increase)” value ([4]; with 0.1% Brij 35 (v/v)) of the same compound?
**A.** 0.000 nm

**Q.** And the “Optical layer thickness (increase)” value ([4]; with 0.2% Brij 35 (v/v))?
**A.** 0.000 nm

**Q.** And the “Optical layer thickness (increase)” value ([4]; without Brij 35)?
**A.** 0.169 nm

**Q.** Which “Optical layer thickness (non-specific binding)” value ([3]; 0.5 μg PGT) does the source give for Poly-(Glu, Tyr) 4:1 [PGT] here?
**A.** 0.064 nm

**Q.** And the “Optical layer thickness (non-specific binding)” value ([3]; 1.0 μg PGT)?
**A.** 0.026 nm

**Q.** And the “Optical layer thickness (non-specific binding)” value ([3]; 2.0 μg PGT)?
**A.** 0.000 nm

**Q.** What about the “Optical layer thickness (non-specific binding)” value ([3]; 5.0 μg PGT) of the same compound?
**A.** 0.052 nm

**Q.** And the “Optical layer thickness (non-specific binding)” value ([3]; 10 μg PGT)?
**A.** 0.065 nm

**Q.** And the “Optical layer thickness (non-specific binding)” value ([3]; 20 μg PGT)?
**A.** 0.054 nm

**Q.** And the “Optical layer thickness (non-specific binding)” value ([3]; 50 μg PGT)?
**A.** 0.113 nm

**Q.** And the “Optical layer thickness (non-specific binding)” value ([3]; 100 μg PGT)?
**A.** 0.084 nm

**Q.** What about the “Optical layer thickness, component on its own” value [3, 5] of the same compound?
**A.** 0 nm

**Q.** And the “Optical layer thickness, component on its own” value ([3]; Table 9: EGF-RK buffer with Brij 35, substrate 10 μg/50 μl, EGF-RK 2 Units/50 μl)?
**A.** 0 nm
